Read-outs that look alike come from different tables or passages of the source.
System: IL-13 release from KU812 cells
Assay: IL-13 release assay in KU812 cells (PMA + ionomycin, IL-13 ELISA)
Format: cell-based, human

Compound	inhibition at 10 µM (Homo sapiens, positive control 10 μM, read-out: Percentages of IL-13 inhibition) [%]	inhibition at 1 µM (Homo sapiens, 1 μM, read-out: Percentages of IL-13 inhibition) [%]	inhibition at 10 µM (Homo sapiens, 10 μM (Fistein), read-out: Percentages of IL-13 inhibition) [%]	inhibition at 100 µM (Homo sapiens, 100 μM, read-out: Percentages of IL-13 inhibition) [%]	IL-13 release / inhibition, in words (first screening (Examples 1 and 3))
C[C@@H]1C[C@H]2[C@@H]3CCC4=CC(=O)C=C[C@]4(C)[C@@]3(F)[C@@H](O)C[C@]2(C)[C@@]1(O)C(=O)CO [Dexamethasone]	52				
O=c1c(O)c(-c2ccc(O)c(O)c2)oc2cc(O)ccc12 [Fistein, Fisetin]		26.5	17.3	35.7	the inhibition percentages were relatively low

— patent US10967031B2, “Synergistic herbal compositions with prebiotic properties for treatment of skin infections, allergies and inflammation” (priority 2010, dated 2021)
